In assay [1] the target is T1, ENPP1 (Homo sapiens (Human), UniProt P22413). In words: cGAMP-Glo enzymatic assay (2′3′-cGAMP substrate, AMP-Glo readout). Type of assay: biochemical. The note with it: substrate 2′3′-cGAMP; 25° C. for 60 min; 50 mM Tris pH 8.8. As for the experimental part:
(§1) Example A: Enzymatic Assay
(§2) • 1. Diluted compounds in DMSO by hand for 11 points, 3 folds dilution. Then transferred 0.02 μL compounds to 384 assay plate by ECHO. • 2. Added 2 μL specified concentration of ENPP1 to 384 assay plate. Centrifuged 1000 RPM for 1 min. • 3. Added 2 μL specified concentration of ATP to the assay plate. Centrifuged 1000 RPM for 1 min. • 4. Incubated at 25° C. for 60 min. • 5. Added 4 μL AMP-Glo Reagent to the assay plates. • 6. Centrifuged 1000 RPM for 1 min, incubate at 25° C. for 1 hours. • 7. Added 8 μL Kinase Detection Reagent to the assay plates. • 8. Centrifuged 1000 RPM for 1 min, incubated at 25° C. for 1 hours. The final assay reaction mixture contained a buffer of 50 mM Tris pH 8.8, 250 mM NaCl and 0.1% BSA • 9. Read on Envision for US LUM as RLU. • 10. Analyzed the raw data using the equation (V. Data analysis). cGAMP-Glo Assay: • 1. Diluted compounds in DMSO by hand for 11 points, 3 folds dilution. Then transferred 0.02 μL compounds to 384 assay plate by ECHO. • 2. Added 2 μL specified concentration of ENPP1 to 384 assay plate, centrifuged 1000 RPM for 1 min. • 3. Added 2 μL specified concentration of 2′3′-cGAMP to the assay plate, centrifuged 1000 RPM for 1 min. • 4. Incubated at 25° C. for 60 min. • 5. Added 4 μL AMP-Glo Reagent to the assay plates. • 6. Centrifuged 1000 RPM for 1 min, incubated at 25° C. for 1 hours. • 7. Added 8 μL Kinase Detection Reagent to the assay plates. • 8. Centrifuged 1000 RPM for 1 min, incubate at 25° C. for 1 hours. The final assay reaction mixture contained a buffer of 50 mM Tris pH 8.8, 250 mM NaCl and 0.1% BSA • 9. Read on Envision for US LUM as RLU. • 10. Analyzed the raw data using the equation (V. Data analysis).

The target in assay [2] is T1, ENPP1. In words: ATP-Glo enzymatic assay (ATP substrate, AMP-Glo readout). The settings on record: 25° C. for 60 min, 50 mM Tris pH 8.8. Type of assay: biochemical. As for the experimental part: as §1, §2

Here are results for 23 compounds from patent publication US20250101019A1 (Insilico Medicine IP Limited, priority 2022, published 2025).

T1 sequence (P22413 whole entry, species assumed): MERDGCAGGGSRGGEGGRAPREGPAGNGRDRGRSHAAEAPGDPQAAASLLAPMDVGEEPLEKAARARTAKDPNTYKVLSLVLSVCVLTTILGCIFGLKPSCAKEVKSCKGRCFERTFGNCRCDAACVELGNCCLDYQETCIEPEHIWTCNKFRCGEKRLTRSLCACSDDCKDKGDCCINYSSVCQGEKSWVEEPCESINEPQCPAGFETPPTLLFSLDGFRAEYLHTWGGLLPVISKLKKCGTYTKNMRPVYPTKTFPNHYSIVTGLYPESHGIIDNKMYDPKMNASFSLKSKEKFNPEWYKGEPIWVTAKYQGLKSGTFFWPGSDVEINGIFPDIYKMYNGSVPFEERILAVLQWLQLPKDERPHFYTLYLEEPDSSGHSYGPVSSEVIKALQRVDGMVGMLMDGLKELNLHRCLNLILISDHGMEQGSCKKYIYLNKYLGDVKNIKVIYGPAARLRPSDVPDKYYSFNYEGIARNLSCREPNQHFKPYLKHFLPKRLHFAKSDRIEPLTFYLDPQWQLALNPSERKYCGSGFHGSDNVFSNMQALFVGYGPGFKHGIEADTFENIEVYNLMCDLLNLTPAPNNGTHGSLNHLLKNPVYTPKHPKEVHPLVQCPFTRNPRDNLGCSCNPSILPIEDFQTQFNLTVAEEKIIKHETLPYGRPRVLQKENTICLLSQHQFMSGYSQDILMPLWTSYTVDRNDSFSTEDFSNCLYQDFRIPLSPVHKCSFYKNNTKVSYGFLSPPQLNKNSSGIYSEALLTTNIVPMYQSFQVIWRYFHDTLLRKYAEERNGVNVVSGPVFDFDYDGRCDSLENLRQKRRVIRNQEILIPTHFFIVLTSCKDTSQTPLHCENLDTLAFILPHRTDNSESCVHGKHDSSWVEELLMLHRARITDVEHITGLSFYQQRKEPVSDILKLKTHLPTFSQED

The IC50 is the midpoint of a concentration-inhibition curve. For the compound “4-((6-cyano-2-methyl-7-phenyl-1H-imidazo[4,5-c]pyridin-1-yl)methyl)benzenesulfonamide [Example 41]”, the IC50 against ENPP1 [1] and against ENPP1 [2] was below 1 nM each time.
In the case of `COc1ncc2c(C)cn(Cc3ccc(NS(N)(=O)=O)cc3)c2c1-c1ccn(C)n1` [Example 1, N-(4-((6-methoxy-3-methyl-7-(1-methyl-1H-pyrazol-3-yl)-1H-pyrrolo[3,2-c]pyridin-1-yl)methyl)phenyl) sulfamide], the values for the IC50 at ENPP1 [1] and on ENPP1 [2] were 10 to 100 nM and 100 to 1000 nM, respectively.
For `Cc1ncc2ccn(Cc3ccc(NS(N)(=O)=O)cc3)c2c1-c1ccn(C)n1` [Example 2, N-(4-((6-methyl-7-(1-methyl-1H-pyrazol-3-yl)-1H-pyrrolo[3,2-c]pyridin-1-yl)methyl)phenyl) sulfamide], in that order: 100 to 1000 nM and above 1000 nM.
For `COc1ncc2ccn(Cc3ccc(NS(N)(=O)=O)cc3)c2c1-c1ccn(C)n1` [Example 3, N-(4-((6-methoxy-7-(1-methyl-1H-pyrazol-3-yl)-1H-pyrrolo[3,2-c]pyridin-1-yl)methyl)phenyl) sulfamide], in that order: 100 to 1000 nM and above 1000 nM.
For `COc1ncc2c(C)cn(Cc3c(F)cc(S(N)(=O)=O)cc3F)c2c1-c1ccn(C)n1` [Example 4, 3,5-difluoro-4-((6-methoxy-3-methyl-7-(1-methyl-1H-pyrazol-3-yl)-1H-pyrrolo[3,2-c]pyridin-1-yl)methyl)benzene sulfonamide], in that order: below 1 nM and 1 to 10 nM.
As for `COc1ncc2ccn(Cc3ccc(S(N)(=O)=O)cc3)c2c1-c1ccn(C)n1` [Example 5, 4-((6-methoxy-7-(1-methyl-1H-pyrazol-3-yl)-1H-pyrrolo[3,2-c]pyridin-1-yl)methyl)benzenesulfonamide], the IC50 on ENPP1 [1] lay within 1 to 10 nM; against ENPP1 [2], 10 to 100 nM.
As to `COc1ncc2c(C)cn(Cc3ccc(S(N)(=O)=O)cc3)c2c1-c1ccn(C)n1` [Example 6, 4-((6-methoxy-3-methyl-7-(1-methyl-1H-pyrazol-3-yl)-1H-pyrrolo[3,2-c]pyridin-1-yl)methyl)benzenesulfonamide], the IC50 at ENPP1 [1] and on ENPP1 [2] was 1 to 10 nM each time.
Consider `COc1ncc2ccn(Cc3c(F)cc(S(N)(=O)=O)cc3F)c2c1-c1ccn(C)n1` [Example 7, 3,5-difluoro-4-((6-methoxy-7-(1-methyl-1H-pyrazol-3-yl)-1H-pyrrolo[3,2-c]pyridin-1-yl)methyl)benzenesulfonamide], for which the IC50 at ENPP1 [1] and against ENPP1 [2] was 1 to 10 nM throughout.
Consider `COc1ncc2ccn(Cc3ccc(S(N)(=O)=O)cc3)c2c1-n1ccc(C)n1` [Example 8, 4-((6-methoxy-7-(3-methyl-1H-pyrazol-1-yl)-1H-pyrrolo[3,2-c]pyridin-1-yl)methyl)benzenesulfonamide], for which the IC50 against ENPP1 [1] and at ENPP1 [2] was 10 to 100 nM each time.
In the case of `COc1ncc2ccn(Cc3ccc(S(N)(=O)=O)cc3)c2c1-c1ccccc1` [Example 9, 4-((6-methoxy-7-phenyl-1H-pyrrolo[3,2-c]pyridin-1-yl)methyl)benzene sulfonamide], the IC50 against ENPP1 [1] and at ENPP1 [2] was below 1 nM each time.
In the case of `COc1ncc2c(C)cn(Cc3ccc(S(N)(=O)=O)cc3)c2c1-c1ccccc1` [Example 10, 4-((6-methoxy-3-methyl-7-phenyl-1H-pyrrolo[3,2-c]pyridin-1-yl)methyl)benzene sulfonamide], the IC50 at ENPP1 [1] and against ENPP1 [2] was below 1 nM in each case.
Regarding `COc1ncc2ccn(Cc3ccc(S(N)(=O)=O)cc3)c2c1-c1cnn(C(F)(F)F)c1` [Example 11, 4-((6-methoxy-7-(1-(trifluoromethyl)-1H-pyrazol-4-yl)-1H-pyrrolo[3,2-c]pyridin-1-yl)methyl)benzenesulfonamide], the IC50 at ENPP1 [1] and on ENPP1 [2] was 100 to 1000 nM in each case.
Turning to `COc1ncc2c(C)cn(Cc3ccc(S(N)(=O)=O)cc3)c2c1-c1ccc(F)cc1` [Example 12], the IC50 against ENPP1 [1] and at ENPP1 [2] was 10 to 100 nM throughout.
For `COc1ncc2c(C)cn(Cc3ccc(S(N)(=O)=O)cc3)c2c1-c1ccccn1` [Example 13, 4-((6-methoxy-3-methyl-7-(pyridin-2-yl)-1H-pyrrolo[3,2-c]pyridin-1-yl)methyl)benzenesulfonamide], the IC50 on ENPP1 [1] and at ENPP1 [2] was 1 to 10 nM each time.
In the case of `Cc1ncc2c(C)cn(Cc3c(F)cc(S(N)(=O)=O)cc3F)c2c1-c1ccccc1` [Example 14, 4-[(3,6-dimethyl-7-phenylpyrrolo[3,2-c]pyridin-1-yl)methyl]-3,5-difluorobenzene-1-sulfonamide], the IC50 against ENPP1 [1] and against ENPP1 [2] was below 1 nM each time.
As to `Cc1ncc2ccn(Cc3ccc(S(N)(=O)=O)cc3)c2c1-c1ccccc1` [Example 15, 4-((6-methyl-7-phenyl-1H-pyrrolo[3,2-c]pyridin-1-yl)methyl)benzene sulfonamide], the IC50 against ENPP1 [1] and against ENPP1 [2] was below 1 nM each time.
With `Cc1ncc2c(C)cn(Cc3ccc(S(N)(=O)=O)cc3)c2c1-c1ccccc1` [Example 16, 4-((3,6-dimethyl-7-phenyl-1H-pyrrolo[3,2-c]pyridin-1-yl)methyl)benzene sulfonamide], the IC50 against ENPP1 [1] and on ENPP1 [2] was below 1 nM in each case.
On to `Cc1ncc2c(C)cn(Cc3c(F)cc(S(N)(=O)=O)cc3F)c2c1-c1ccn(C)n1` [Example 17, 4-((3,6-dimethyl-7-(1-methyl-1H-pyrazol-3-yl)-1H-pyrrolo[3,2-c]pyridin-1-yl)methyl)-3,5-difluorobenzenesulfonamide], for which the IC50 at ENPP1 [1] and on ENPP1 [2] was 1 to 10 nM throughout.
Turning to `Cc1ncc2c(C)cn(Cc3c(F)cc(S(N)(=O)=O)cc3F)c2c1-c1ccn(C(F)(F)F)n1` [Example 18, 4-((3,6-dimethyl-7-(1-(trifluoromethyl)-1H-pyrazol-3-yl)-1H-pyrrolo[3,2-c]pyridin-1-yl)methyl)-3,5-difluorobenzenesulfonamide], the IC50 on ENPP1 [1] was 10 to 100 nM; against ENPP1 [2] it was 100 to 1000 nM.
For `COc1ncc2c(c1-c1ccccc1)n(Cc1ccc(S(N)(=O)=O)cc1)c(=O)n2C` [Example 19, 4-[(6-methoxy-3-methyl-2-oxo-7-phenylimidazo[5,4-c]pyridin-1-yl)methyl]benzene-1-sulfonamide], in that order: below 1 nM and below 1 nM.
Consider `Cc1ncc2c(c1-c1ccccc1)n(Cc1ccc(S(N)(=O)=O)cc1)c(=O)n2C` [Example 20, 4-((3,6-dimethyl-2-oxo-7-phenyl-2,3-dihydro-1H-imidazo[4,5-c]pyridin-1-yl)methyl)benzenesulfonamide], for which the IC50 on ENPP1 [1] and at ENPP1 [2] was below 1 nM throughout.
On to `COc1ncc2cnn(Cc3ccc(S(N)(=O)=O)cc3)c2c1-c1ccccc1` [Example 21, 4-((6-methoxy-7-phenyl-1H-pyrazolo[4,3-c]pyridin-1-yl)methyl)benzenesulfonamide], for which the IC50 at ENPP1 [1] was in the range of 1 to 10 nM; at ENPP1 [2], 10 to 100 nM.
Take `COc1ncc2nc(C)n(Cc3ccc(S(N)(=O)=O)cc3)c2c1-c1ccccc1` [Example 22, 4-((6-methoxy-2-methyl-7-phenyl-1H-imidazo[4,5-c]pyridin-1-yl)methyl)benzenesulfonamide]: the IC50 at ENPP1 [1] and on ENPP1 [2] was below 1 nM in each case.
